For data set [1], the target named is T1, Protein mono-ADP-ribosyltransferase TIPARP (Homo sapiens, UniProt Q7Z3E1).
T1 sequence (Q7Z3E1 whole entry): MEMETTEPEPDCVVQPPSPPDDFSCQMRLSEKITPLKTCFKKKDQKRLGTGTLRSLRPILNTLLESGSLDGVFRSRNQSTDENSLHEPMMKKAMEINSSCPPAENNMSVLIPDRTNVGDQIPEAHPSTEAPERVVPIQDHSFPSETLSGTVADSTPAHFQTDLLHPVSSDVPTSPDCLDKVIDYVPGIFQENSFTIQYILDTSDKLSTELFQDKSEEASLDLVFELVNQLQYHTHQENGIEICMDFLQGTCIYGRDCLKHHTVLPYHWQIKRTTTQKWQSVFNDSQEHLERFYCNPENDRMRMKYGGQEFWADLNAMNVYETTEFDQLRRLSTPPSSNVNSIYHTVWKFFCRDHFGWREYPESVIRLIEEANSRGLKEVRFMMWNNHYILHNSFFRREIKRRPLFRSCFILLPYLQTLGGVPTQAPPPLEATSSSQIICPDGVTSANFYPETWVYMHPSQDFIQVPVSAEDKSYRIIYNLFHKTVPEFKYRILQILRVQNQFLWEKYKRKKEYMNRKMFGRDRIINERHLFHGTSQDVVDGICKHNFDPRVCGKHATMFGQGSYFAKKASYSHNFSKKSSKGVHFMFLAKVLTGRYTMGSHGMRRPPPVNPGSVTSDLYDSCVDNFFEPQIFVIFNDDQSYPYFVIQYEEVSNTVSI
The experiment in a line: Inhibition of PARP7 (unknown origin) by HTRF assay. (Time-resolved FRET reads energy transfer from a long-lived donor to a nearby acceptor.)

Data set [2] can be described thus: Oral bioavailability in mouse at 100 mg/kg administered as single dose. It is filed as ADME, organism-based. The note with it: in vivo.

Structures are written as SMILES. pIC50: −log10 of the molar value.

The values below come from ChEMBL document CHEMBL5126675, “Recent Discovery of PARP7 Inhibitors as Anticancer Agents” (ACS Med Chem Lett, 2022).

In the case of `C[C@@H](COCCC(=O)N1CCN2c3ncc(C(F)(F)F)cc3OC[C@@H]2C1)Oc1cn[nH]c(=O)c1C(F)(F)F`, in data set [1], the negative logarithm of the IC50 (pIC50) was 8.91. In addition, in data set [2], the bioavailability was found to be 121%.

Compound `C[C@@H](COCCC(=O)N1CCN2c3ncc(Cl)cc3OCC[C@@H]2C1)Oc1cn[nH]c(=O)c1C(F)(F)F` gave a negative-log IC50 (pIC50) in data set [1] of 9.00. Also, the bioavailability in data set [2] turned out to be 106%.

Usually pIC50 stands for the negative decadic logarithm of the IC50, by convention in mol/L.
